Test results published in patent publication US11666596B2, “Nucleotide, polypeptide and applications thereof” (THE FIRST AFFILIATED HOSPITAL, SUN YAT-SEN UNIVERSITY, priority 2017, dated 2023).
Ends that are not written are not given here.

Test system: U251 cells
Assay: Verification of ability of micropeptide to enter cells (fluorescence microscopy)
Assay type: cell-based
Conditions: FITC-attached micropeptide, 10 μM, 4 hours; all cells in sight were fluorescent; FIG. 4
Protocol: U251 cells were inoculated onto a glass slide at the density of 50%, and different concentrations of PTEN-31aa micropeptide attached with FITC fluorescent groups (the micropeptide was dissolved in DMSO with a concentration being 20 μg/μL, 5 mM) were added to treat cells for 4 hours, then fixed with Faure Marin, and observed and photographed under a fluorescence microscope.

ability of micropeptide to enter U251 cells: could enter the U251 cells smoothly
Sequence: MWRDSLCAAAGYALGAGTRLRSVLSSRKLQP [PTEN-31aa]
